Converted amounts (≈) assume the structure as drawn.
Assays:
Type in all cases: cell-based
[1] = test system: Streptococcus faecalis (BCM-010); experiment: MIC by microdilution in microtiter plate, BCM-010; details: incubation 24 h at 35° C.; for MIC: Enterococcus faecalis
Method: (§1) In order to assess the antimicrobial activity of the compounds of the present invention a method of microdilution in microtiter plate was used. The compounds were diluted in a nutritious medium and, subsequently, distributed by two-fold serial dilutions in 96 well plates. Then, plates were inoculated with a bacterial suspension. After incubation for 24 h at 35° C. the minimum inhibitory concentration (MIC) of the drug in […] was determined as the lowest concentration of compound which inhibits the growth of the bacterium. Results included in Table 1 illustrate the antimicrobial activity of some of the compounds of the present invention in comparison with thus obtained with two compounds (linezolid and eperezolid) of a known antimicrobial activity. The antimicrobial activity of the compound versus Streptococcus faecalis (BCM-010, strain designation as for SALVAT collection) Staphylococcus aureus (BCM-012, strain designation as for SALVAT collection) and Moraxella catarrhalis (BCM-015, strain designation as for SALVAT collection), respectively, is shown in the different columns.

[2] = test system: Staphylococcus aureus (BCM-012); experiment: MIC by microdilution in microtiter plate, BCM-012; details: incubation 24 h at 35° C.
Method: as §1

[3] = test system: Moraxella catarrhalis (BCM-015); experiment: MIC by microdilution in microtiter plate, BCM-015; details: incubation 24 h at 35° C.
Method: as §1

Molecule	BCM-010 MIC [1] [µg/mL]	BCM-012 MIC [2] [µg/mL]	BCM-015 MIC [3] [µg/mL]	MIC [1] [µg/mL]	MIC [2] [µg/mL]	MIC [3] [µg/mL]
1-(2-fluoro-4-{5-[(3-methylisotiazol-5-ylamino)-methyl]isoxazol-3-yl}phenyl)-1H-imidazol-4-carboxaldehyde [Example 33]	2	0.5	4	–	–	–
CC(=O)NC[C@H]1CN(c2ccc(N3CCN(C(=O)CO)CC3)c(F)c2)C(=O)O1 [Eperezolid, eperezolid, reference compound]	–	–	–	4 (≈ 10.1 µM)	2 (≈ 5.07 µM)	8 (≈ 20.3 µM)
O=C(CO)N1CCN(c2ccc(-c3cc(CNc4ccon4)on3)cc2F)CC1 [Example 1, 3-[3-fluoro-4-(hydroxyacetyl)piperazin-1-ylyhenyl]-5-(isoxazol-3-ylaminomethyl)isoxazole]	–	–	–	4 (≈ 9.97 µM)	2 (≈ 4.98 µM)	8 (≈ 19.9 µM)
Fc1cc(-c2cc(CNc3ccon3)on2)ccc1-n1ccnc1 [Example 2, 3-(3-fluoro-4-imidazol-1-ylphenyl)-5-(isoxazol-3-ylaminomethyl)isoxazole]	–	–	–	4 (≈ 12.3 µM)	2 (≈ 6.15 µM)	–
O=C(c1ccno1)N1CCN(c2ccc(-c3cc(CNc4ccon4)on3)cc2F)CC1 [Example 3]	–	–	–	4 (≈ 9.12 µM)	2 (≈ 4.56 µM)	–
O=Cc1ccn(-c2ccc(-c3cc(CNc4ccon4)on3)cc2F)c1 [Example 5]	–	–	–	1 (≈ 2.84 µM)	1 (≈ 2.84 µM)	8 (≈ 22.7 µM)
O=C(Cn1cccn1)N1CCN(c2ccc(-c3cc(CNc4ccon4)on3)cc2F)CC1 [Example 6]	–	–	–	4 (≈ 8.86 µM)	2 (≈ 4.43 µM)	> 16
O=C(COc1ccccc1)N1CCN(c2ccc(-c3cc(CNc4ccon4)on3)cc2F)CC1 [Example 7, 1-(4-{2-fluoro-4-[5-(isoxazol-3-ylaminomethyl)-isoxazol-3-yl]-phenyl}piperazin-1-yl)-2-phenoxyethanone]	–	–	–	4 (≈ 8.38 µM)	2 (≈ 4.19 µM)	–
O=C(Cn1cncn1)N1CCN(c2ccc(-c3cc(CNc4ccon4)on3)cc2F)CC1 [Example 8, 3-[3-fluoro-4-(4-(1,2,4-triazol-1-yl)acetyl)piperazin-1-ylphenyl]-5-(isoxazol-3-ylaminomethyl)isoxazole]	–	–	–	4 (≈ 8.84 µM)	2 (≈ 4.42 µM)	–
O=C(c1cccnc1)N1CCN(c2ccc(-c3cc(CNc4ccon4)on3)cc2F)CC1 [Example 9, 3-[3-fluoro-4-(3-pyridylcarbonyl)piperazin-1-ylphenyl]-5-(isoxazol-3-ylaminomethyl)isoxazole]	–	–	–	4 (≈ 8.92 µM)	2 (≈ 4.46 µM)	> 16
O=C(Cn1cccc1)N1CCN(c2ccc(-c3cc(CNc4ccon4)on3)cc2F)CC1 [Example 10, 3-[3-fluoro-4-(4-(1-pyrrolyl)acetyl)piperazin-1-ylphenyl]-5-(isoxazol-3-ylaminomethyl)isoxazole]	–	–	–	4 (≈ 8.88 µM)	2 (≈ 4.44 µM)	> 16
O=C(COc1cccnc1)N1CCN(c2ccc(-c3cc(CNc4ccon4)on3)cc2F)CC1 [Example 11, 3-[3-fluoro-4-(3-pyridyloxyacetyl)piperazin-1-ylphenyl]-5-(isoxazol-3-ylaminomethyl)isoxazole]	–	–	–	4 (≈ 8.36 µM)	2 (≈ 4.18 µM)	–
O=C(COc1ccccn1)N1CCN(c2ccc(-c3cc(CNc4ccon4)on3)cc2F)CC1 [Example 12, 3-[3-fluoro-4-(2-pyridyloxyacetyl)piperazin-1-ylphenyl]-5-(isoxazol-3-ylaminomethyl)isoxazole]	–	–	–	2 (≈ 4.18 µM)	2 (≈ 4.18 µM)	–
O=C(COc1cccc([N+](=O)[O-])c1)N1CCN(c2ccc(-c3cc(CNc4ccon4)on3)cc2F)CC1 [Example 13, 3-[3-fluoro-4-(3-nitrophenyloxyacetyl)piperazin-1-ylphenyl]-5-(isoxazol-3-ylaminomethyl)isoxazole]	–	–	–	2 (≈ 3.83 µM)	1 (≈ 1.91 µM)	–
O=C(COc1ccc([N+](=O)[O-])cc1)N1CCN(c2ccc(-c3cc(CNc4ccon4)on3)cc2F)CC1 [Example 14, 3-[3-fluoro-4-(4-nitrophenyloxyaetyl)piperazin-1-ylphenyl]-5-(isoxazol-3-ylaminomethyl)isoxazole]	–	–	–	2 (≈ 3.83 µM)	1 (≈ 1.91 µM)	–
O=C(COCc1ccco1)N1CCN(c2ccc(-c3cc(CNc4ccon4)on3)cc2F)CC1 [Example 15, 3-[3-fluoro-4-(2-furylmethoxyacetyl)piperazin-1-ylphenyl]-5-(isoxazol-3-ylaminomethyl)isoxazole]	–	–	–	4 (≈ 8.31 µM)	2 (≈ 4.15 µM)	–

Molecule	BCM-010 MIC [1] [µg/mL]	BCM-012 MIC [2] [µg/mL]	BCM-015 MIC [3] [µg/mL]	MIC [1] [µg/mL]	MIC [2] [µg/mL]	MIC [3] [µg/mL]
O=C(COCc1ccccn1)N1CCN(c2ccc(-c3cc(CNc4ccon4)on3)cc2F)CC1 [Example 16, 3-[3-fluoro-4-(2-pyridylmethoxyacetyl)piperazin-1-ylphenyl]-5-(isoxazol-3-ylaminomethyl)isoxazole]	–	–	–	4 (≈ 8.12 µM)	2 (≈ 4.06 µM)	–
N#Cc1ccc(OCC(=O)N2CCN(c3ccc(-c4cc(CNc5ccon5)on4)cc3F)CC2)cc1 [Example 17, 3-[3-fluoro-4-(4-cyanophenoxyacetyl)piperazin-1-ylphenyl]-5-(isoxazol-3-ylaminomethyl)isoxazole]	–	–	–	2 (≈ 3.98 µM)	2 (≈ 3.98 µM)	–
C#CCOCC(=O)N1CCN(c2ccc(-c3cc(CNc4ccon4)on3)cc2F)CC1 [Example 18, 3-[3-fluoro-4-(3-propyn-1-yloxyacetyl)piperazin-1-ylphenyl]-5-(isoxazol-3-ylaminomethyl)isoxazole]	–	–	–	4 (≈ 9.1 µM)	2 (≈ 4.55 µM)	–
O=Cc1ccc(OCC(=O)N2CCN(c3ccc(-c4cc(CNc5ccon5)on4)cc3F)CC2)cc1 [Example 19, 3-[3-fluoro-4-(4-formylphenyloxyacetyl)piperazin-1-ylphenyl]-5-(isoxazol-3-ylaminomethyl)isoxazole]	–	–	–	0.5 (≈ 0.989 µM)	1 (≈ 1.98 µM)	–
O=C(COc1ccc2ncccc2c1)N1CCN(c2ccc(-c3cc(CNc4ccon4)on3)cc2F)CC1 [Example 22, 1-(4-{2-fluoro-4-[5-(isoxazol-3-ylaminomethyl)-isoxazol-3-yl]-phenyl}piperazin-1-yl)-2(quinolin-6-yloxy)ethanone]	–	–	–	1 (≈ 1.89 µM)	0.5 (≈ 0.946 µM)	4 (≈ 7.57 µM)
OCc1ccn(-c2ccc(-c3cc(CNc4ccon4)on3)cc2F)c1 [Example 23, (1-{2-fluoro-4-[5-(isoxazol-3-ylaminomethyl)-isoxazol-3-yl]phenyl}-1H-pyrrol-3-yl)methanol]	–	–	–	1 (≈ 2.82 µM)	0.5 (≈ 1.41 µM)	4 (≈ 11.3 µM)
O/N=C\c1ccn(-c2ccc(-c3cc(CNc4ccon4)on3)cc2F)c1 [Example 24]	–	–	–	0.5 (≈ 1.36 µM)	0.5 (≈ 1.36 µM)	16 (≈ 43.6 µM)
N#Cc1ccn(-c2ccc(-c3cc(CNc4ccon4)on3)cc2F)c1 [Example 25]	–	–	–	0.5 (≈ 1.43 µM)	0.5 (≈ 1.43 µM)	16 (≈ 45.8 µM)
O=Cc1ccc(OCC(=O)N2CCN(c3c(F)cc(-c4cc(CNc5ccon5)on4)cc3F)CC2)cc1 [Example 26, 4-[2-(4-{2,6-difluoro-4-[5-(isoxazol-3-ylaminomethyl)isoxazol-3-yl]phenyl}piperazin-1-yl)-2-oxoethoxy]benzaldehyde]	–	–	–	1 (≈ 1.91 µM)	0.5 (≈ 0.955 µM)	4 (≈ 7.64 µM)
O=Cc1cn(-c2ccc(-c3cc(CNc4ccon4)on3)cc2F)cn1 [Example 27, 1-{2-fluoro-4-[5-(isoxazol-3-ylaminomethyl)isoxazol-3-yl]phenyl}-1H-imidazol-4-carboxaldehyde]	–	–	–	2 (≈ 5.66 µM)	0.5 (≈ 1.42 µM)	4 (≈ 11.3 µM)
COc1ccccc1NCc1cn(-c2ccc(-c3cc(CNc4ccon4)on3)cc2F)cn1 [Example 29, [3-(3-fluoro-4-{4-[(2-methoxiphenylamino)-methyl]imidazol-1-yl}phenyl)isoxazol-5-ylmethyl]isoxazol-3-ylamine]	–	–	–	1 (≈ 2.17 µM)	0.5 (≈ 1.09 µM)	4 (≈ 8.69 µM)
Cc1ccccc1NCc1ccn(-c2ccc(-c3cc(CNc4ccon4)on3)cc2F)c1 [Example 30, (3-{3-fluoro-4-[3-(o-tolylaminomethyl)pyrrol-1-yl]phenyl}isoxazol-5-ylmethyl)isoxazol-3-ylamine]	–	–	–	1 (≈ 2.25 µM)	0.5 (≈ 1.13 µM)	16 (≈ 36.1 µM)
O=C(COc1ccc(/C=N\O)cc1)N1CCN(c2c(F)cc(-c3cc(CNc4ccon4)on3)cc2F)CC1 [Example 31, 4-[2-(4-{2,6-difluoro-4-[5-(isoxazol-3]aminomethyl)isoxazol-3-yl-penyl}-piperazin-1-yl)2-oxoethoxy]-benzaldoxime]	–	–	–	1 (≈ 1.86 µM)	0.5 (≈ 0.928 µM)	–
Cc1cc(NCc2cc(-c3ccc(-n4ccnc4)c(F)c3)no2)sn1 [Example 32, [3-(3-fluoro-4-imidazol-1-ylphenyl)isoxazol-5-ylmethyl]-(3-methylisotiazol-5-yl)amine]	–	–	–	1 (≈ 2.81 µM)	1 (≈ 2.81 µM)	–
Cc1cn(-c2ccc(-c3cc(CNc4cc(C)ns4)on3)cc2F)cn1 [Example 34, {3-[3-fluoro-4-(4-methylimidazolyl)phenyl]isoxazol-5-ylmethyl}-(3-methyl-isothiazol-5-yl)amine]	–	–	–	1 (≈ 2.71 µM)	1 (≈ 2.71 µM)	4 (≈ 10.8 µM)
CC(=O)NC[C@H]1CN(c2ccc(N3CCOCC3)c(F)c2)C(=O)O1 [Linezolid, linezolid, reference compound]	–	–	–	4 (≈ 11.9 µM)	2 (≈ 5.93 µM)	4 (≈ 11.9 µM)

Source: patent US20050014806A1, “Substituted isoxazoles and their use as antibiotics” (priority 2001, published 2005)
